Results taken from US6403615B1, “2-Aryl-3-aroylbenzo {b} thiophenes useful for the treatment of estrogen deprivation syndrome” (Eli Lilly and Company, priority 1997, dated 2002).

Legend:
[1] = test system: ovariectomized (OVX) rats; assay: Osteoporosis (bone mineral density) in ovariectomized rat model; type: in vivo, Sprague Dawley rats; settings: oral in 20% hydroxypropyl β-cyclodextrin, daily for 35 days, femur x-ray image analysis, tibia quantitative computed tomography
Source text: Seventy-five day old female Sprague Dawley rats (weight range of 200g to 225 g) are obtained from Charles River Laboratories (Portage, Mich.). The animals are either bilaterally ovariectomized (OVX) or exposed to a Sham surgical procedure at Charles River Laboratories, and then shipped after one week. Upon arrival, they are housed in metal hanging cages in groups of 3 or 4 per cage and have ad libitum access to food (calcium content approximately 0.5%) and water for one week. Room temperature is maintained at 22.2°±1.7° C. with a minimum relative humidity of 40%. The photoperiod in the room is 12 hours light and 12 hours dark.
Following the General Procedure, infra, the rats are treated daily for 35 days (6 rats per treatment group) and sacrificed by carbon dioxide asphyxiation on the 36th day. The 35 day time period is sufficient to allow maximal reduction in bone density, measured as described herein. At the time of sacrifice, the uteri are removed, dissected free of extraneous tissue, and the fluid contents are expelled before determination of wet weight in order to confirm estrogen deficiency associated with complete ovariectomy. […]
The right femurs are excised and digitilized x-rays generated and analyzed by an image analysis program (NIH image) at the distal metaphysis. The proximal aspect of the tibiae from these animals are also scanned by quantitative computed tomography.

| Structure (SMILES) | melting point | loss of bone mineral density [1] |
| --- | --- | --- |
| COc1ccc(C(=O)c2c(-c3ccc(O)cc3)sc3cc(O)ccc23)cc1 [Example 2, 2-(4-Hydroxyphenyl)-3-(4-Methoxybenzoyl)-6-Hydroxybenzo[b]thiophene] | 138 to 140 °C | – |
| COc1ccc(-c2sc3cc(OC)ccc3c2C(=O)c2ccc(O)cc2)cc1 [Example 3, 2-(4-Methoxyphenyl)-3-(4-Hydroxybenzoyl)-6-Methoxybenzo[b]thiophene] | 114 to 116 °C | – |
| C#C[C@]1(O)CC[C@H]2[C@@H]3CCc4cc(O)ccc4[C@H]3CC[C@@]21C [ethynyl estradiol, 17-α-ethynyl estradiol] | – | a reduction in the loss of bone mineral density |
